Assay [1] concerns the target P2X7 (IL-1β release from THP-1 cells) (Homo sapiens (Human), UniProt Q99572). The experiment in a line: IL-1β release assay. The assay is classed as cell-based. On the procedure:
IL-1β release assay: The activation of P2X7 by ATP leads to a fast transient activation of cells resulting in influx of Ca^2+ followed by conversion of pro-IL-1β to active IL-1β. The functional activity of P2X7 compounds was measured by the release of mature […] in the culture medium of THP-1 cells, detected by sandwich ELISA. […] THP-1 cells were harvested from the flask in 50 ml by centrifugation for 3 min at 100 g. The cells were resuspended to 2×10^5 cells/ml in medium supplemented with 0.5 μM PMA and incubated. The cells were washed and resuspended to 1.5×10^5 cells/ml in medium complemented with 10 ng/ml LPS, and the cells were primed for 4 h at 37° C., 5% CO2. After addition of 20 μL of prediluted test compounds, blank, standard and control reagents, cells were incubated for a further 20 min at 37° C. and stimulated with 0.8 mM BzATP for 30 minutes. The cells were centrifuged, supernatant was collected and the presence of mature IL-1β was detected using Dual human IL-1b kit following manufacturer's instruction. The tetrahydrobenzodiazepine analogs effectively modulated the activity of P2X7 in the cells as measured by the levels of pro-inflammatory cytokine IL-1β, which is released by the activation of P2X7 receptor.

The target in a further assay is human P2X7 receptor (Homo sapiens (Human), UniProt Q99572). The assay is described as follows: Pore permeation assay (YO PRO dye uptake). The assay is classed as cell-based. As to the method: Agonist-induced pore formation was determined by measuring cellular uptake of YO PRO fluorescence dye in HEK293 transfected with human P2X7 receptor. A HEK293 cell over expressing human P2X7 was harvested using HQTase reagent to detach the cells from T75 cm flask. The harvested cells are centrifuged @1200 rpm for 5 min at room temperature. The viability of cells was determined by Trypan blue dye and the cells are plated @10,000 cell/well in 50 ul volume in a 384W BD Poly lysine coated plate and incubated overnight at 37 C. […] The plate was centrifuged at 1000 rpm for 5 seconds and incubated at room temperature for 30 minutes. The uptake of YO PRO dye into the cells was measured using Envision Fluorescence plate reader instrument (Perkin Elmer).

[2] abbreviates: THP-1 cells, LPS primed, 0.8 mM BzATP, mature IL-1β by sandwich ELISA, read-out: hTHP-1/IL-ib IC50.
Setting [3] is: HEK293 transfected with human P2X7, BzATP 10 uM, YO PRO dye uptake, read-out: hP2X7 IC50.

The text below walks through data of patent US10323000B2, “Indole derivatives and their use in neurodegenerative diseases” (priority 2014, dated 2019).

Like-named read-outs stand apart in the source and are kept apart here.

Sequence of human P2X7 receptor (Q99572 whole entry): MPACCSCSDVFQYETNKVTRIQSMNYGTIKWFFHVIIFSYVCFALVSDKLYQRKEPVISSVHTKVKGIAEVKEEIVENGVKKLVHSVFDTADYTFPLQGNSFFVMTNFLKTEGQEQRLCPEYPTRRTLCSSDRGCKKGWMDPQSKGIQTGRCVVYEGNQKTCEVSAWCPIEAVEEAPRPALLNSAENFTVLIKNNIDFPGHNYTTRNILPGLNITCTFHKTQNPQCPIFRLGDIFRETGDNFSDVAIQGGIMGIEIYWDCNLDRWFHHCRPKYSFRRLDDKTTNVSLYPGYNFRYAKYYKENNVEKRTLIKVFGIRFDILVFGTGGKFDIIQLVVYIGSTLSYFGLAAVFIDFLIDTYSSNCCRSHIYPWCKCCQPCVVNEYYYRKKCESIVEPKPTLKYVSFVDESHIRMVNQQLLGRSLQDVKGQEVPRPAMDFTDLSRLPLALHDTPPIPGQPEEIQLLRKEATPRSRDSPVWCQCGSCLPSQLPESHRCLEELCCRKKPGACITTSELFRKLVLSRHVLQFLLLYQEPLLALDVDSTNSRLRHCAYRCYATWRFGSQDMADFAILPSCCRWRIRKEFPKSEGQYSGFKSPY
Sequence of P2X7 (IL-1β release from THP-1 cells) (Q99572 whole entry): as above

Take `COCCn1cc(C(=O)NCCc2ccc(F)cc2Cl)c2c(Cl)cccc21` [Compound 34, 4-Chloro-1-(2-methoxy-ethyl)-1H-indole-3-carboxylic acid [2-(4-fluoro-2-chloro-phenyl)-ethyl]-amide]: the IC50 (in assay [1]; against human P2X7 receptor) was 101 to 500 nM throughout.

Regarding `COCCn1cc(C(=O)NCCc2ccccc2Cl)c2c(Cl)cccc21` [Compound 35, 4-Chloro-1-(2-methoxy-ethyl)-1H-indole-3-carboxylic acid [2-(2-chloro-phenyl)-ethyl]-amide], the IC50 (in assay [1]; against human P2X7 receptor) was 101 to 500 nM throughout.

`COCCn1cc(C(=O)NCCc2ccc(Cl)cc2Cl)c2c(Cl)cccc21` [Compound 36]: the figures for the IC50 (in assay [1] (setting [2]); at human P2X7 receptor) were more than 1000 nM and 101 to 500 nM, respectively.

For `COCCn1cc(C(=O)NCC2(O)CCCC(F)(F)C2)c2c(Cl)cccc21` (stereo not shown) [Compound 37, 4-chloro-N-((3,3-difluoro-1-hydroxycyclohexyl)methyl)-1-(2-methoxyethyl)-1H-indole-3-carboxamide], the IC50 (in assay [1]; against human P2X7 receptor) was 10 to 100 nM in each case.

Turning to `COCCn1cc(C(=O)NCC2(c3ccc(C(F)(F)F)cc3)CCOCC2)c2c(Cl)cccc21` [Compound 38], the figures for the IC50 (in assay [1]; against human P2X7 receptor) were 101 to 500 nM and 10 to 100 nM, respectively.

Regarding `COCCn1cc(C(=O)NCC2(c3ccccc3)CCCCC2)c2c(Cl)cccc21` [Compound 39, 4-chloro-1-(2-methoxyethyl)-N-((1-phenylcyclohexyl)methyl)-1H-indole-3-carboxamide], the IC50 in assay [1] was in the range of 101 to 500 nM; against human P2X7 receptor, 10 to 100 nM.

Turning to `COCCn1cc(C(=O)NCC2(O)CCC(F)(F)CC2)c2c(Cl)cccc21` [Compound 40, 4-chloro-N-((4,4-difluoro-1-hydroxycyclohexyl)methyl)-1-(2-methoxyethyl)-1H-indole-3-carboxamide], the IC50 (in assay [1]; at human P2X7 receptor) was 10 to 100 nM throughout.

Take `COCCn1cc(C(=O)NCC2CCC(F)(F)CC2)c2c(Cl)cccc21` [Compound 41, 4-chloro-N-((4,4-difluorocyclohexyl)methyl)-1-(2-methoxyethyl)-1H-indole-3-carboxamide]: the IC50 in assay [1] (setting [2]) is less than 10 nM; at human P2X7 receptor, 10 to 100 nM.

On to `O=C(NCC1(N2CCN(c3ccccc3)CC2)CCOCC1)c1cn(C2COC2)c2cccc(Cl)c12` [Compound 44, 4-chloro-1-(oxetan-3-yl)-N-((4-(4-phenylpiperazin-1-yl)tetrahydro-2H-pyran-4-yl)methyl)-1H-indole-3-carboxamide], for which the IC50 in assay [1] was 101 to 500 nM; against human P2X7 receptor, 10 to 100 nM.

`O=C(NCCC1(O)CCCC1)c1cn(C2COC2)c2cccc(Cl)c12` [Compound 45, 4-chloro-N-(2-(1-hydroxycyclopentyl)ethyl)-1-(oxetan-3-yl)-1H-indole-3-carboxamide]: the IC50 (in assay [1] (setting [2]); on human P2X7 receptor (setting [3])) was more than 1000 nM each time.

Take `O=C(NCC1CCCCC1)c1cn(C2COC2)c2cccc(Cl)c12` [Compound 48, 4-chloro-N-(cyclohexylmethyl)-1-(oxetan-3-yl)-1H-indole-3-carboxamide]: the IC50 (in assay [1]; against human P2X7 receptor) was 101 to 500 nM throughout.

On to `O=C(NCC1(N2CCN(c3ccccc3)CC2)CCCCC1)c1cn(C2COC2)c2cccc(Cl)c12` [Compound 51, 4-chloro-1-(oxetan-3-yl)-N-((1-(4-phenylpiperazin-1-yl)cyclohexyl)methyl)-1H-indole-3-carboxamide], for which the IC50 in assay [1] (setting [2]) is less than 10 nM; against human P2X7 receptor, 10 to 100 nM.

Take `O=C(NCC1CCC(C(F)(F)F)CC1)c1cn(C2COC2)c2cccc(Cl)c12` (stereo not shown) [Compound 53, 4-Chloro-1-oxetan-3-yl-1H-indole-3-carboxylic acid (4-trifluoromethyl-cyclohexylmethyl)-amide]: the IC50 in assay [1] lay within 101 to 500 nM; against human P2X7 receptor, 10 to 100 nM.

Take `O=C(NCC1CCCC(C(F)(F)F)C1)c1cn(C2COC2)c2cccc(Cl)c12` (stereo not shown) [Compound 56, 4-Chloro-1-oxetan-3-yl-1H-indole-3-carboxylic acid (3-trifluoromethyl-cyclohexylmethyl)-amide]: the IC50 was in the range of 101 to 500 nM in assay [1] and 10 to 100 nM on human P2X7 receptor.

As for `O=C(NCC1(O)CCCCC1)c1cn(C2COC2)c2cccc(Cl)c12` [Compound 58, 4-Chloro-1-oxetan-3-yl-1H-indole-3-carboxylic acid (1-hydroxy-cyclohexylmethyl)-amide], the IC50 in assay [1] was 101 to 500 nM; against human P2X7 receptor it was 10 to 100 nM.

Consider `O=C(NCC1C[C@@H]2CC[C@H]1C2)c1cn(C2COC2)c2cccc(Cl)c12` (stereo partly drawn) [Compound 59, 4-Chloro-1-oxetan-3-yl-1H-indole-3-carboxylic acid ((1S,4R)-1-bicyclo[2.2.1]hept-2-ylmethyl)-amide], for which the IC50 (in assay [1]; at human P2X7 receptor) was 10 to 100 nM in each case.

As for `CC(NC(=O)c1cn(C2COC2)c2cccc(Cl)c12)[C@]12C[C@H]3C[C@H](C[C@H](C3)C1)C2` (stereo partly shown) [Compound 62, 4-Chloro-1-oxetan-3-yl-1H-indole-3-carboxylic acid (1-adamantan-1-yl-ethyl)-amide], the IC50 (in assay [1]; on human P2X7 receptor) was 10 to 100 nM throughout.

As to `CC1(C)CCCC(O)(CNC(=O)c2cn(C3COC3)c3cccc(Cl)c23)C1` (stereo not shown) [Compound 64, 4-Chloro-1-oxetan-3-yl-1H-indole-3-carboxylic acid (1-hydroxy-3,3-dimethyl-cyclohexylmethyl)-amide], the IC50 (in assay [1]; against human P2X7 receptor) was 10 to 100 nM throughout.

For `O=C(NCC1(O)CCCCCC1)c1cn(C2COC2)c2cccc(Cl)c12` [Compound 65, 4-Chloro-1-oxetan-3-yl-1H-indole-3-carboxylic acid (1-hydroxy-cycloheptylmethyl)-amide], the IC50 in assay [1] is 101 to 500 nM; against human P2X7 receptor it was 10 to 100 nM.

For the molecule `O=C(NC[C@@H]1CCCC(F)(F)C1)c1cn(C2COC2)c2cccc(Cl)c12` [Compound 66, 4-chloro-N—(((R)-3,3-difluorocyclohexyl)methyl)-1-(oxetan-3-yl)-1H-indole-3-carboxamide], the IC50 lay within 101 to 500 nM in assay [1] and 10 to 100 nM at human P2X7 receptor.

Consider `O=C(NC[C@H]1CCCC(F)(F)C1)c1cn(C2COC2)c2cccc(Cl)c12` [Compound 67, 4-chloro-N—(((S)-3,3-difluorocyclohexyl)methyl)-1-(oxetan-3-yl)-1H-indole-3-carboxamide], for which the IC50 (in assay [1]; at human P2X7 receptor) was 10 to 100 nM throughout.

As for `O=C(NCC1CCCC2(CC2)C1)c1cn(C2COC2)c2cccc(Cl)c12` (stereo not shown) [Compound 68, 4-chloro-1-(oxetan-3-yl)-N-(spiro[2.5]octan-5-ylmethyl)-1H-indole-3-carboxamide], the values for the IC50 (in assay [1]; on human P2X7 receptor (setting [3])) were 10 to 100 nM and less than 10 nM, respectively.

With `O=C(NCC(c1ccccc1)C1CCCC1)c1cn(C2COC2)c2cccc(Cl)c12` (stereo not shown) [Compound 70, 4-Chloro-1-oxetan-3-yl-1H-indole-3-carboxylic acid (2-cyclopentyl-2-phenyl-ethyl)-amide], the IC50 in assay [1] lay in the range of 101 to 500 nM; against human P2X7 receptor, 10 to 100 nM.

On to `O=C(NCCOC1CCCC1)c1cn(C2COC2)c2cccc(Cl)c12` [Compound 72, 4-Chloro-1-oxetan-3-yl-1H-indole-3-carboxylic acid (2-cyclopentyloxy-ethyl)-amide], for which the IC50 in assay [1] (setting [2]) was more than 1000 nM; against human P2X7 receptor, 500 to 999 nM.

In the case of `O=C(NCCCC(F)(F)F)c1cn(C2COC2)c2cccc(Cl)c12` [Compound 73, 4-Chloro-1-oxetan-3-yl-1H-indole-3-carboxylic acid (4,4,4-trifluoro-butyl)-amide], the values for the IC50 (in assay [1]; on human P2X7 receptor) were 500 to 999 nM and 101 to 500 nM, respectively.

Take `O=C(NCC1CCCOC1)c1cn(C2COC2)c2cccc(Cl)c12` (stereo not shown) [Compound 74, 4,4-Chloro-1-oxetan-3-yl-1H-indole-3-carboxylic acid (tetrahydro-pyran-3-ylmethyl)-amide]: the IC50 (in assay [1] (setting [2]); on human P2X7 receptor (setting [3])) was more than 1000 nM throughout.

For the molecule `O=C(NCC[C@@H]1C[C@@H]2C=C[C@H]1C2)c1cn(C2COC2)c2cccc(Cl)c12` [Compound 75, 4-Chloro-1-oxetan-3-yl-1H-indole-3-carboxylic acid ((1S,2S,4S)-2-bicyclo[2.2.1]hept-5-en-2-yl-ethyl)-amide], the IC50 in assay [1] is 10 to 100 nM; on human P2X7 receptor (setting [3]) it was less than 10 nM.

Regarding `O=C(NCC1(O)CCCC1)c1cn(C2COC2)c2cccc(Cl)c12` [Compound 81, 4-Chloro-1-oxetan-3-yl-1H-indole-3-carboxylic acid (1-hydroxy-cyclopentylmethyl)-amide], the IC50 in assay [1] is 500 to 999 nM; against human P2X7 receptor, 101 to 500 nM.

On to `O=C(NCCC1CCCC1)c1cn(C2COC2)c2cccc(Cl)c12` [Compound 82, 4-Chloro-1-oxetan-3-yl-1H-indole-3-carboxylic acid (2-cyclopentyl-ethyl)-amide], for which the figures for the IC50 (in assay [1]; on human P2X7 receptor (setting [3])) were 101 to 500 nM and less than 10 nM, respectively.
